Test results taken from patent publication US20250163104A1, “MACROCYCLIC IMMUNOMODULATORS” (priority 2021, published 2025).
Where a SMILES comes first, the peptide text is derived from it. Bridges are numbered along the chain shown (N, C = ends). [ ]: non-standard residue; d: D form. The star is where a group is joined. ξ: configuration not given here. Phe(4-(2-Et-4-HO-Ph)) = CCc1cc(O)ccc1-c1ccc(C[C@H](N)C(=O)O)cc1; Ala(indol-4-yl) = N[C@@H](Cc1cccc2[nH]ccc12)C(=O)O; Phe(3-CF3) = N[C@@H](Cc1cccc(C(F)(F)F)c1)C(=O)O; Ala(morpholin-4-yl) = N[C@@H](CN1CCOCC1)C(=O)O; Phe(4-CONH2) = NC(=O)c1ccc(C[C@H](N)C(=O)O)cc1; Phe(4-COOH) = N[C@@H](Cc1ccc(C(=O)O)cc1)C(=O)O; Bip = N[C@@H](Cc1ccc(-c2ccccc2)cc1)C(=O)O; Phe(3-Me) = Cc1cccc(C[C@H](N)C(=O)O)c1; Phe(2-F) = N[C@@H](Cc1ccccc1F)C(=O)O; Val(3-OH) = CC(C)(O)[C@H](N)C(=O)O; hArg = N=C(N)NCCCC[C@H](N)C(=O)O; 4Pal = N[C@@H](Cc1ccncc1)C(=O)O; Cha = N[C@@H](CC1CCCCC1)C(=O)O; Cit = NC(=O)NCCC[C@H](N)C(=O)O; Ile(3ξ) = CCC(C)[C@H](N)C(=O)O; Thr(3ξ) = CC(O)[C@H](N)C(=O)O; Dap(Me) = CNC[C@H](N)C(=O)O; Carboxymethyl = O=C(O)C*; Orn = NCCC[C@H](N)C(=O)O; Dab = NCC[C@H](N)C(=O)O; Dap = NC[C@H](N)C(=O)O

Each molecule was assayed against T1, human PD-1 / PD-L1-Ig binding on Jurkat cell line over-expressing human PD-1 (Jurkat-PD-1) (Homo sapiens, UniProt Q15116) (assay: Jurkat-PD-1 Cell Binding High-Content Screening Assay (CBA)). Details: Jurkat-PD-1 cells, PE-labeled PD-L1-Ig 20 nM final; read-out: Jurkat HPD1_PDL1 IC50.
T1 construct: expressed in transfected cells; host or cells: Jurkat
T1 sequence (Q15116 25-288): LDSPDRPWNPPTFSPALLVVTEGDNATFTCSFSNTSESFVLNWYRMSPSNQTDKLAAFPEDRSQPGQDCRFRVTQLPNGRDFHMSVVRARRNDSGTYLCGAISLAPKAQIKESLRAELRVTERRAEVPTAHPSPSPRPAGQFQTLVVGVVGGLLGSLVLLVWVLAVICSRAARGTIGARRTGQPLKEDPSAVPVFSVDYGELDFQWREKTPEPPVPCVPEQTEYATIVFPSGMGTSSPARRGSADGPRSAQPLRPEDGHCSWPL
Format: cell-based
In short: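 Jurkat-hPD-1 cells in DMEM with 10% fetal calf serum receive test compound and are held at 37° C for 2 h. PE-labeled PD-L1-Ig is added at 20 nM final and left for 1 hour. Cells are then fixed and Hoechst-stained, and binding is measured by imaging.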

Row | IC50 | SMILES
1 | 9.7 nM | CC(C)C[C@H]1NC(=O)[C@H](CCCN)NC(=O)[C@H](C(C)C)NC(=O)[C@H](Cc2ccc(-c3ccccc3)cc2)NC(=O)[C@H](C(C)C)NC(=O)[C@H](Cc2c[nH]c3ccccc23)NC(=O)[C@H](CC(=O)O)NC(=O)[C@H](Cc2ccc(O)cc2)NC(=O)[C@H](Cc2ccc(OCC(=O)O)cc2)NC(=O)CSC[C@@H](C(=O)N[C@@H](C)C(N)=O)NC(=O)[C@H]([C@@H](C)O)NC(=O)[C@H](C(C)C)NC(=O)[C@H](CC2CCCCC2)NC(=O)[C@H](CCN)NC1=O [Compound 1173]
2 | 2.5 nM | CCc1cc(O)ccc1-c1ccc(C[C@@H]2NC(=O)[C@H](Cc3cccc(C(F)(F)F)c3)NC(=O)[C@H](CC(=O)O)NC(=O)[C@H](Cc3ccc(C(=O)O)cc3)NC(=O)[C@H](CN3CCOCC3)NC(=O)CSC[C@@H](C(=O)N[C@@H](CCN)C(N)=O)NC(=O)[C@H](CCC(=O)O)NC(=O)[C@H](C(C)C)NC(=O)[C@H](CC3CCCCC3)NC(=O)[C@H](CCN)NC(=O)[C@@H](CC(C)C)NC(=O)[C@H](CCCN)NC(=O)[C@H](Cc3ccc(C(=O)O)cc3)NC(=O)[C@H](Cc3ccc(-c4ccccc4)cc3)NC2=O)cc1 [Example 2733] ({CH2CO}-[Ala(morpholin-4-yl)][Phe(4-COOH)]D[Phe(3-CF3)][Phe(4-(2-Et-4-HO-Ph))][Bip][Phe(4-COOH)][Orn][dL][Dab][Cha]VEC[Dab]-NH2; thioether N-14)
3 | 10.8 nM | CCC(C)[C@@H]1NC(=O)[C@H](Cc2ccc(-c3ccccc3)cc2)NC(=O)[C@H](C(C)C)NC(=O)[C@H](Cc2c[nH]c3ccccc23)NC(=O)[C@H](CC(=O)O)NC(=O)[C@H](Cc2ccc(OCC(=O)O)cc2)NC(=O)[C@H](CNC)NC(=O)CSC[C@@H](C(=O)N[C@@H](C)C(N)=O)NC(=O)[C@H](C(C)O)NC(=O)[C@H](C(C)C)NC(=O)[C@H](CC(C)C)NC(=O)[C@H](CCN)NC(=O)[C@@H](CC(C)C)NC(=O)[C@H](CCCN)NC1=O (stereo partly drawn) [Compound 2512] ({CH2CO}-[Dap(Me)]Y(Carboxymethyl)DWV[Bip][Ile(3ξ)][Orn][dL][Dab]LV[Thr(3ξ)]CA-NH2; thioether N-14)
4 | 15.5 nM | CC(C)C[C@H]1NC(=O)[C@H](CCCN)NC(=O)[C@H](CCC(=O)O)NC(=O)[C@H](Cc2ccc(-c3ccccc3)cc2)NC(=O)[C@H](C(C)C)NC(=O)[C@H](Cc2c[nH]c3ccccc23)NC(=O)[C@H](CC(=O)O)NC(=O)[C@H](Cc2ccc(OCC(=O)O)cc2)NC(=O)[C@H](CN)NC(=O)CSC[C@@H](C(=O)N[C@@H](C)C(N)=O)NC(=O)[C@H]([C@@H](C)O)NC(=O)[C@H](C(C)C)NC(=O)[C@H](Cc2ccccc2F)NC(=O)[C@H](CCN)NC1=O [Compound 1485] ({CH2CO}-[Dap]Y(Carboxymethyl)DWV[Bip]E[Orn][dL][Dab][Phe(2-F)]VTCA-NH2; thioether N-14)
5 | 23.3 nM | CC(C)C[C@H]1NC(=O)[C@H](CCCN)NC(=O)[C@H](C(C)C)NC(=O)[C@H](Cc2ccc(-c3ccccc3)cc2)NC(=O)[C@H](C(C)C)NC(=O)[C@H](Cc2c[nH]c3ccccc23)NC(=O)[C@H](CC(=O)O)NC(=O)[C@H](Cc2ccc(OCC(=O)O)cc2)NC(=O)[C@H](CN)NC(=O)CSC[C@@H](C(=O)N[C@@H](C)C(N)=O)NC(=O)[C@H]([C@@H](C)O)NC(=O)[C@H](C(C)C)NC(=O)[C@H](CC2CCCCC2)NC(=O)[C@H](CCC(=O)O)NC1=O [Compound 1522] ({CH2CO}-[Dap]Y(Carboxymethyl)DWV[Bip]V[Orn][dL]E[Cha]VTCA-NH2; thioether N-14)
6 | 6.5 nM | CC(C)C[C@H]1NC(=O)[C@H](CCCN)NC(=O)[C@H](CCC(=O)O)NC(=O)[C@H](Cc2ccc(-c3ccccc3)cc2)NC(=O)[C@H](C(C)C)NC(=O)[C@H](Cc2c[nH]c3ccccc23)NC(=O)[C@H](CC(=O)O)NC(=O)[C@H](Cc2ccc(OCC(=O)O)cc2)NC(=O)[C@H](Cc2cnc[nH]2)NC(=O)CSC[C@@H](C(=O)N[C@@H](CC(N)=O)C(N)=O)NC(=O)[C@H](C(C)O)NC(=O)[C@H](C(C)C)NC(=O)[C@H](CC2CCCCC2)NC(=O)[C@H](CCN)NC1=O (stereo partly drawn) [Compound 2562] ({CH2CO}-HY(Carboxymethyl)DWV[Bip]E[Orn][dL][Dab][Cha]V[Thr(3ξ)]CN-NH2; thioether N-14)
7 | 24.5 nM | CC(C)C[C@@H]1NC(=O)[C@H](Cc2c[nH]c3ccccc23)NC(=O)[C@H](CC(=O)O)NC(=O)[C@H](Cc2ccc(C(=O)O)cc2)NC(=O)[C@H](Cc2ccc(OCC(=O)O)cc2)NC(=O)CSC[C@@H](C(=O)NCC(N)=O)NC(=O)[C@H](CO)NC(=O)[C@H](C(C)C)NC(=O)[C@H](CC(C)C)NC(=O)[C@H](CC(N)=O)NC(=O)[C@@H](CC(C)C)NC(=O)[C@H](CCCN)NC(=O)[C@H](C(C)C)NC(=O)[C@H](Cc2ccc(-c3ccccc3)cc2)NC1=O [Compound 1283] ({CH2CO}-Y(Carboxymethyl)[Phe(4-COOH)]DWL[Bip]V[Orn][dL]NLVSCG-NH2; thioether N-14)
8 | 11.9 nM | Cc1cccc(C[C@@H]2NC(=O)[C@H](CC(=O)O)NC(=O)[C@H](Cc3ccc(OCC(=O)O)cc3)NC(=O)[C@H](CN)NC(=O)CSC[C@@H](C(=O)N[C@@H](CCCN)C(N)=O)NC(=O)[C@H]([C@@H](C)O)NC(=O)[C@H](C(C)C)NC(=O)[C@H](CC3CCCCC3)NC(=O)[C@H](CCN)NC(=O)[C@@H](CC(C)C)NC(=O)[C@H](CCCN)NC(=O)[C@H](CCCNC(N)=O)NC(=O)[C@H](Cc3ccc(-c4ccccc4)cc3)NC(=O)[C@H](C(C)C)NC2=O)c1 [Compound 2011] ({CH2CO}-[Dap]Y(Carboxymethyl)D[Phe(3-Me)]V[Bip][Cit][Orn][dL][Dab][Cha]VTC[Orn]-NH2; thioether N-14)
9 | 7.5 nM | CC(C)C[C@H]1NC(=O)[C@H](CCCN)NC(=O)[C@H](C(C)C)NC(=O)[C@H](Cc2ccc(-c3ccccc3)cc2)NC(=O)[C@H](C(C)C)NC(=O)[C@H](Cc2c[nH]c3ccccc23)NC(=O)[C@H](CC(=O)O)NC(=O)[C@H](Cc2ccc(OCC(=O)O)cc2)NC(=O)[C@H](CCCCNC(=N)N)NC(=O)CSC[C@@H](C(=O)N[C@@H](CC(N)=O)C(N)=O)NC(=O)[C@H](C(C)O)NC(=O)[C@H](C(C)C)NC(=O)[C@H](CC2CCCCC2)NC(=O)[C@H](CCN)NC1=O (stereo partly drawn) [Compound 2546] ({CH2CO}-[hArg]Y(Carboxymethyl)DWV[Bip]V[Orn][dL][Dab][Cha]V[Thr(3ξ)]CN-NH2; thioether N-14)
10 | 15.6 nM | Cc1cccc(C[C@@H]2NC(=O)[C@H](CC(=O)O)NC(=O)[C@H](Cc3ccc(C(=O)O)cc3)NC(=O)[C@H](Cc3ccc(OCC(=O)O)cc3)NC(=O)CSC[C@@H](C(N)=O)NC(=O)[C@H]([C@@H](C)O)NC(=O)[C@H](C(C)C)NC(=O)[C@H](CC(C)C)NC(=O)[C@H](CCN)NC(=O)[C@@H](CC(C)C)NC(=O)[C@H](CCCN)NC(=O)[C@H](C(C)C)NC(=O)[C@H](Cc3ccc(-c4ccccc4)cc3)NC(=O)[C@H](C(C)C)NC2=O)c1 [Compound 1551] ({CH2CO}-Y(Carboxymethyl)[Phe(4-COOH)]D[Phe(3-Me)]V[Bip]V[Orn][dL][Dab]LVTC-NH2; thioether N-14)
11 | 4.6 nM | CC(C)C[C@H]1NC(=O)[C@H](CCCN)NC(=O)[C@H](Cc2ccc(C(=O)O)cc2)NC(=O)[C@H](Cc2ccc(-c3ccccc3)cc2)NC(=O)[C@H](Cc2cccc3[nH]ccc23)NC(=O)[C@H](Cc2cccc(C(F)(F)F)c2)NC(=O)[C@H](CC(=O)O)NC(=O)[C@H](Cc2ccc(C(=O)O)cc2)NC(=O)[C@H](CN2CCOCC2)NC(=O)CSC[C@@H](C(=O)N[C@@H](CCN)C(N)=O)NC(=O)[C@H](CCC(=O)O)NC(=O)[C@H](C(C)C)NC(=O)[C@H](CC2CCCCC2)NC(=O)[C@H](CCN)NC1=O [Example 2742] ({CH2CO}-[Ala(morpholin-4-yl)][Phe(4-COOH)]D[Phe(3-CF3)][Ala(indol-4-yl)][Bip][Phe(4-COOH)][Orn][dL][Dab][Cha]VEC[Dab]-NH2; thioether N-14)
12 | 8.9 nM | Cc1cccc(C[C@@H]2NC(=O)[C@H](CC(=O)O)NC(=O)[C@H](Cc3ccc(OCC(=O)O)cc3)NC(=O)[C@H](Cc3ccncc3)NC(=O)CSC[C@@H](C(=O)N[C@H](CC(N)=O)C(N)=O)NC(=O)[C@H](CO)NC(=O)[C@H](C(C)(C)O)NC(=O)[C@H](CC3CCCCC3)NC(=O)[C@H](CCN)NC(=O)[C@@H](CC(C)C)NC(=O)[C@H](CCCN)NC(=O)[C@H](Cc3ccc(O)cc3)NC(=O)[C@H](Cc3ccc(-c4ccccc4)cc3)NC(=O)[C@H](Cc3ccc(C(N)=O)cc3)NC2=O)c1 [Compound 2657] ({CH2CO}-[4Pal]Y(Carboxymethyl)D[Phe(3-Me)][Phe(4-CONH2)][Bip]Y[Orn][dL][Dab][Cha][Val(3-OH)]SC[dN]-NH2; thioether N-14)
13 | 34.5 nM | CCCC[C@H]1NC(=O)[C@H](CCCN)NC(=O)[C@H](C(C)C)NC(=O)[C@H](Cc2ccc(-c3ccccc3)cc2)NC(=O)[C@H](C(C)C)NC(=O)[C@H](Cc2c[nH]c3ccccc23)NC(=O)[C@H](CC(=O)O)NC(=O)[C@H](Cc2ccncc2)NC(=O)[C@H](Cc2ccc(OCC(=O)O)cc2)NC(=O)CSC[C@@H](C(=O)N[C@@H](C)C(N)=O)NC(=O)[C@H]([C@@H](C)O)NC(=O)[C@H](C(C)C)NC(=O)[C@H](CC2CCCCC2)NC(=O)[C@H](CCN)NC1=O [Compound 1694]
14 | 633 nM | CC(C)C[C@H]1NC(=O)[C@H](CCCN)NC(=O)[C@H](CCC(=O)O)NC(=O)[C@H](Cc2ccc(-c3ccccc3)cc2)NC(=O)[C@H](C(C)C)NC(=O)[C@H](Cc2c[nH]c3ccccc23)NC(=O)[C@H](CC(=O)O)NC(=O)[C@H](Cc2ccc(OCC(=O)O)cc2)NC(=O)[C@H](Cc2ccc(OCC(=O)O)cc2)NC(=O)CSC[C@@H](C(=O)N[C@@H](C)C(N)=O)NC(=O)[C@H]([C@@H](C)O)NC(=O)[C@H](C(C)C)NC(=O)[C@H](Cc2ccc(O)cc2)NC(=O)[C@H](CCN)NC1=O [Compound 1688] ({CH2CO}-Y(Carboxymethyl)Y(Carboxymethyl)DWV[Bip]E[Orn][dL][Dab]YVTCA-NH2; thioether N-14)
